# Test results reported in patent publication US7247641B2, “Compounds, derivatives, compositions, preparation and uses” (MGI GP, Inc., priority 2001, dated 2007).
# Target: T1, purified recombinant human PARP (Homo sapiens, UniProt P09874)
# T1 construct: purchased Trevigan (Gaithersburg, Md.)
# Assay: PARP enzyme assay, [3H]NAD incorporation, IC50
# Assay type: biochemical
# Conditions: not given
# Procedure: The reaction is initiated by incubating the mixture at 25° C. After 15 minutes of incubation, the reaction is terminated by adding 500 microliters of ice cold 20% (w/v) trichloroacetic acid. The precipitate formed is transferred onto a glass fiber filter (Packard Unifilter-GF/B) and washed three times with ethanol. After the filter is dried, the radioactivity is determined by scintillation counting.
# T1 sequence (P09874 whole entry): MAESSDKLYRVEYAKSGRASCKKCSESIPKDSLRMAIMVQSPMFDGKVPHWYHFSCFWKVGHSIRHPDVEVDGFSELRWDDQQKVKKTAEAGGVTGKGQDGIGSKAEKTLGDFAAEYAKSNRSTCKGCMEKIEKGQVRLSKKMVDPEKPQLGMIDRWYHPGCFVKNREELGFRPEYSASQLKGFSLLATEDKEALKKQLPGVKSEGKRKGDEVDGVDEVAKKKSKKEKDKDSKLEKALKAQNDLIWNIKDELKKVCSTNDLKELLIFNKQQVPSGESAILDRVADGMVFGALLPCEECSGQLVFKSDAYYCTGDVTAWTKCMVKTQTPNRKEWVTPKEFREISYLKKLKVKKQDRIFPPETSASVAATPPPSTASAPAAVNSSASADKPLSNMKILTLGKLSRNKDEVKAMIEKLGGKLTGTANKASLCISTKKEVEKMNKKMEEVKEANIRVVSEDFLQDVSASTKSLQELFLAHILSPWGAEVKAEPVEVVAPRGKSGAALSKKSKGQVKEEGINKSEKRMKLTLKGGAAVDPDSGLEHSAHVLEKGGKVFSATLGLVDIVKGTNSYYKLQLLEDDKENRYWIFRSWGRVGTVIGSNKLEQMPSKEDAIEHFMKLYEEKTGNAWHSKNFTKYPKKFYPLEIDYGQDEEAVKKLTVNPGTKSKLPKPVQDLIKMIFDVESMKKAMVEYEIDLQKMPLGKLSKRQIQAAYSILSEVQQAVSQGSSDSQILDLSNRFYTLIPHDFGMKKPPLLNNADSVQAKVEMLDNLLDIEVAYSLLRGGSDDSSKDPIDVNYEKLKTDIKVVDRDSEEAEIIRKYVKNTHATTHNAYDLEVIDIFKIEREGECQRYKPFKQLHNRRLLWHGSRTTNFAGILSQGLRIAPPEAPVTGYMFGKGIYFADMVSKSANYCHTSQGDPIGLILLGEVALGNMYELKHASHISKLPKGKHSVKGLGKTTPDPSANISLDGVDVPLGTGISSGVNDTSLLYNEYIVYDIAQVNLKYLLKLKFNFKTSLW
row,IC50 [nM],Structure (SMILES)
1,80,O=c1[nH]c2c(c3ccccc13)CN(S(=O)(=O)CCN1CCC(N3CCCC3)CC1)CC2 [Compound 24a]

# Same assay, conditions: approximate values, PARP enzyme assay; read-out: IC50
row,IC50 [nM],Structure (SMILES)
1,698,CC(C)C(N)C(=O)N1CCc2[nH]c(=O)c3ccccc3c2C1 (centres unmarked) [Compound 21c]
2,668,O=C(CNC[C@H](O)CO)N1CCc2[nH]c(=O)c3ccccc3c2C1 [Compound 16i]
3,672,O=C(CCCN1CCCCC1CO)N1CCc2[nH]c(=O)c3ccccc3c2C1 (centres unmarked) [Compound 18f]
4,322,O=C(CCCNC[C@@H]1CCCO1)N1CCc2[nH]c(=O)c3ccccc3c2C1 [Compound 18o]
5,3710,N[C@H](Cc1ccc(O)cc1)C(=O)N1CCc2[nH]c(=O)c3ccccc3c2C1 [Compound 21k]
6,13100,O=C(CN1CCN(CCO)CC1)N1CCc2[nH]c(=O)c3ccccc3c2C1 [Compound 16f]
7,410,O=C(CCCN1CC=CCC1)N1CCc2[nH]c(=O)c3ccccc3c2C1 [Compound 18m]
8,282,CN(C)CCCN(C)CCC(=O)N1CCc2[nH]c(=O)c3ccccc3c2C1 [Compound 17a]
9,457,O=C(CCCN1CCCCC1)N1CCc2[nH]c(=O)c3ccccc3c2C1 [Compound 18j]
10,111,O=C1CCN(CCC(=O)N2CCc3[nH]c(=O)c4ccccc4c3C2)CC1 [Compound 17k]
11,558,CCOC(=O)C1CCN(CCC(=O)N2CCc3[nH]c(=O)c4ccccc4c3C2)CC1 [Compound 17j]
12,844,O=C(CN1CCCCC1CO)N1CCc2[nH]c(=O)c3ccccc3c2C1 (centres unmarked) [Compound 16e]
13,2180,CC(O)CNCCC(=O)N1CCc2[nH]c(=O)c3ccccc3c2C1 (centres unmarked) [Compound 17c]
14,167,O=C(CCCNC[C@H]1CCCO1)N1CCc2[nH]c(=O)c3ccccc3c2C1 [Compound 18p]
15,244,O=C(CCN1CCc2ccccc2C1)N1CCc2[nH]c(=O)c3ccccc3c2C1 [Compound 17g]
16,87,CC(O)CNCCCC(=O)N1CCc2[nH]c(=O)c3ccccc3c2C1 (centres unmarked) [Compound 18c]
17,1800,CN1CCN(CCC(=O)N2CCc3[nH]c(=O)c4ccccc4c3C2)CC1 [Compound 17b]
18,482,CCOC(=O)C1CCN(CCCC(=O)N2CCc3[nH]c(=O)c4ccccc4c3C2)CC1 [Compound 18k]
19,134,CCOC(=O)C1CCN(CC(=O)N2CCc3[nH]c(=O)c4ccccc4c3C2)CC1 [Compound 16k]
20,156,O=C(CCCNCC1(O)CCCCC1)N1CCc2[nH]c(=O)c3ccccc3c2C1 [Compound 18s]

row,IC50 [nM],Structure (SMILES)
1,426,CN(C)CCCN(C)CC(=O)N1CCc2[nH]c(=O)c3ccccc3c2C1 [Compound 16a]
2,1230,NC(Cc1ccccc1)C(=O)N1CCc2[nH]c(=O)c3ccccc3c2C1 (centres unmarked) [Compound 21i]
3,71,O=C(CCN1CCCCC1)N1CCc2nc(O)c3ccccc3c2C1 [Compound 17i]
4,421,CC(O)CNCC(=O)N1CCc2[nH]c(=O)c3ccccc3c2C1 (centres unmarked) [Compound 16c]
5,268,O=C(C1CCCN1)N1CCc2[nH]c(=O)c3ccccc3c2C1 (centres unmarked) [Compound 21d]
6,304,O=C(c1cccc(S(=O)(=O)N2CCc3[nH]c(=O)c4ccccc4c3C2)c1)N1CCC(N2CCCC2)CC1 [Compound 23b]
7,182,O=c1[nH]c2c(c3ccc(F)cc13)CN(Cc1ccccc1)CC2 [Compound 6b]
8,90,NCC(=O)N1CCc2[nH]c(=O)c3ccccc3c2C1 [Compound 21a]
9,251,O=C1CCN(CCCC(=O)N2CCc3[nH]c(=O)c4ccccc4c3C2)CC1 [Compound 18l]
10,357,O=C(CCCNCC(O)c1ccccc1)N1CCc2[nH]c(=O)c3ccccc3c2C1 (centres unmarked) [Compound 18r]
11,644,CN(C)CC(=O)N1CCc2[nH]c(=O)c3ccccc3c2C1 [Compound 16g]
12,152,CN(C)CCCC(=O)N1CCc2[nH]c(=O)c3ccccc3c2C1 [Compound 18h]
13,185,O=C(CCCl)N1CCc2[nH]c(=O)c3ccccc3c2C1 [Compound 14a]
14,1320,O=C(CCCNCCc1ccccc1F)N1CCc2[nH]c(=O)c3ccccc3c2C1 [Compound 18n]
15,385,CN(C)CCN(C)CCC(=O)N1CCc2[nH]c(=O)c3ccccc3c2C1 [Compound 17e]
16,58,CC(=O)N1CCc2[nH]c(=O)c3ccccc3c2C1 [Compound 21n]
17,495,CN(CCCC(=O)N1CCc2[nH]c(=O)c3ccccc3c2C1)CC(=O)OC(C)(C)C [Compound 18d]
18,435,O=C(CCN1CCCCC1CO)N1CCc2[nH]c(=O)c3ccccc3c2C1 (centres unmarked) [Compound 17f]
19,164,O=C(CCNCCc1ccccc1F)N1CCc2[nH]c(=O)c3ccccc3c2C1 [Compound 17m]
20,214,O=C(CN1CC=CCC1)N1CCc2[nH]c(=O)c3ccccc3c2C1 [Compound 16m]

row,IC50 [nM],Structure (SMILES)
1,36,O=C(O)c1cccc(S(=O)(=O)N2CCc3[nH]c(=O)c4ccccc4c3C2)c1 [Compound 22a]
2,382,NC(Cc1ccc(O)cc1)C(=O)N1CCc2[nH]c(=O)c3ccccc3c2C1 (centres unmarked) [Compound 21j]
3,492,CN(C)CCN(C)CCCC(=O)N1CCc2[nH]c(=O)c3ccccc3c2C1 [Compound 18e]
4,335,O=c1[nH]c2c(c3ccccc13)CN(Cc1ccccc1)CC2 [Compound 6a]
5,185,CN(C)CCCN(C)CCCC(=O)N1CCc2[nH]c(=O)c3ccccc3c2C1 [Compound 18a]
6,799,O=C(c1cccc(CCl)c1)N1CCc2c([nH]c(=O)c3ccccc23)C1 [Compound 21p]
7,241,CN1CCN(CCCC(=O)N2CCc3[nH]c(=O)c4ccccc4c3C2)CC1 [Compound 18b]
8,985,CN(C)CCN(C)CC(=O)N1CCc2[nH]c(=O)c3ccccc3c2C1 [Compound 16d]
9,180,CN(CCC(=O)N1CCc2[nH]c(=O)c3ccccc3c2C1)CC(=O)OC(C)(C)C [Compound 17d]
10,251,C[C@H](CO)NCCCC(=O)N1CCc2[nH]c(=O)c3ccccc3c2C1 [Compound 18q]
11,220,O=c1[nH]c2c(c3ccccc13)CCN(Cc1ccccc1)C2 [Compound 11]
12,479,O=C(CCCN1CCN(CCO)CC1)N1CCc2[nH]c(=O)c3ccccc3c2C1 [Compound 18g]
13,296,O=C1CCN(CC(=O)N2CCc3[nH]c(=O)c4ccccc4c3C2)CC1 [Compound 16l]
14,441,CN1CCN(C(=O)c2cccc(S(=O)(=O)N3CCc4[nH]c(=O)c5ccccc5c4C3)c2)CC1 [Compound 23a]
15,105,O=C(NCCN1CCCCC1)N1CCc2[nH]c(=O)c3ccccc3c2C1 [Compound 21o]
16,62,NCCC(=O)N1CCc2[nH]c(=O)c3ccccc3c2C1 [Compound 21l]
17,250,O=C(CCNC[C@H](O)CO)N1CCc2[nH]c(=O)c3ccccc3c2C1 [Compound 17h]
18,1670,CN1CCN(CC(=O)N2CCc3[nH]c(=O)c4ccccc4c3C2)CC1 [Compound 16b]
19,1580,O=C(CN1CCc2ccccc2C1)N1CCc2[nH]c(=O)c3ccccc3c2C1 [Compound 16h]
20,292,C=CS(=O)(=O)N1CCc2[nH]c(=O)c3ccccc3c2C1 [Compound 22c]

# System: not given
# Assay: not given
# Conditions: not given
row,melting point [°C],Structure (SMILES)
1,> 300,"O=C1NCN2c3ccccc3Oc3cccc1c32 [Example 6, 1,2-Dihydro-7-oxa-2,11b-diaza-benzo[de]anthracen-3-one]"
2,205 to 208,"O=C1NCN2c3ccc([N+](=O)[O-])cc3Sc3cccc1c32 [Example 5, 9-Nitro-1,2-dihydro-7-thia-2,11b-diaza-benzo[de]anthracen-3-one]"
3,250 to 255,"O=C1NCn2c3ccccc3c(=O)c3cccc1c32 [Example 8, 1,2-Dihydro-2,11b-diaza-benzo[de]anthracene-3,7-dione]"
4,170 to 172,"O=C1NCN2c3ccc(S(=O)(=O)NCCN4CCCCC4)cc3Sc3cccc1c32 [Example 4, 3-Oxo-2,3-dihydro-1H-7-thia-2,11b-diaza-benzo[de]anthracene-9-(N-2-piperidin-1-yl-ethyl)-sulfonamide]"
5,288 to 292,O=C1NC(c2ccccc2)n2c3ccccc3c(=O)c3cccc1c32 (centres unmarked) [Example 9]
6,227 to 228,"O=C1NCN2c3ccc(S(=O)(=O)NCCN4CCOCC4)cc3Sc3cccc1c32 [Example 3, 3-Oxo-2,3-dihydro-1H-7-thia-2,11b-diaza-benzo[de]anthracene-9-(N2-morpholin-4-yl-ethyl)sulfonamide]"
7,187 to 192,"O=C1NCN2c3ccccc3Sc3cccc1c32 [Example 1, 1,2-Dihydro-7-thia-2,11b-diaza-benzo[de]anthracen-3-one]"
